In patent US10988477B2 (Merck Patent GmbH, priority 2018, dated 2021):

How the values were obtained:
GCN2 kinase = GCN2 kinase (Homo sapiens, UniProt Q9P2K8); assay: GCN2 enzyme inhibition assay (Transcreener ADP2 fluorescence polarization); assay type: biochemical; conditions: 280 μM ATP
Outline: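 Run at 25 °C in 25 mM Tris-HCl pH 7.5, 50 mM NaCl, 10 mM MgCl2, 1 mM DTT with 4 nM GCN2, 280 μM ATP and 200 μM (RS)7 peptide; compound (0–8 μM final) preincubated 10 min, reaction 1 h. ADP read by antibody/tracer FP; IC50 and Ki(app) from tight-binding fit.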

[1] = tested on: primary human pan T-cells; assay: Human IL-2 assay for GCN2 inhibition (IL-2 secretion by T cells in low amino acid condition); assay type: cell-based; conditions: T-cell; IL-2 secretion from human T cells, anti-CD3/CD28 stimulation, 96 hours; read-out: IL2/T-cell EC50
Description: Tumor microenvironment is profoundly immuno-suppressive. This may be attributed to the depletion of amino acids (like arginine and tryptophan) which triggers the activation of GCN2 in immune cells, including T cell and myeloid cells. In T cells, activation of GCN2 leads to reduce effector functions of CD8 T cells and induction and/or maintenance of immuno-suppressive T-regs. Inhibition of that immuno-suppressive response by GCN2 inhibitors enables an anti-cancer immune response by activating effector T-cells. Herein we describe an in-vitro system we established using human T-cells stimulated in low amino acid condition in order to engage the GCN2 biology. The method described involves the modulation of IL-2 levels secreted by human T cells in responses to the GCN2 inhibitors disclosed herein.
Amino acid-free RPMI was reconstituted with all but one of the amino acids found in standard RMPI (e.g. Arginine, Tryptophan), 10% charcoal-stripped fetal bovine serum, 100 Units/mL penicillin and 0.1 mg/mL streptomycin. Primary human pan T-cells were isolated using Pan T Cell Isolation Kit, human (MACS Miltenyi biotech Cat #Order no. 130-096-535) from apheresis cones and 5×104 pan T-cells per well. The purified T cells are seeded in Nunc™ 96-Well Polystyrene Round Bottom Microwell Plates (the cells are rested in No TRP media in a 15 ml falcon tube in the incubator for 30-45 minutes while titrations for tryptophan and the GCN2 inhibitor compound are made) A plate matrix was developed to titrate both a GCN2 inhibitor and the amino acid of interest ranging from “No Amino Acid” condition, up to the concentration found in the regular RPMI media (20 μM for TRP and 950 μM for Arginine). The cells were incubated for 30 min at 37° C. with the GCN2 inhibitor and then stimulated with 5×104 anti-CD3/CD28 Dynabeads® per well. After 96 hours of incubation the IL-2 level in the supernatant were measured using ELISA (R&D systems Cat #DY202 (Human IL-2 DuoSet ELISA). Data were plotted in GraphPad Prism software and EC50 is calculated.

[2] = target: intracellular GCN2 (phosphorylation of the GCN2 substrate eIF2α) (Homo sapiens, UniProt Q9P2K8); assay: GCN2 cellular inhibition assay (AlphaScreen SureFire P-eIF2α Ser51, borrelidin-treated U2OS cells); assay type: cell-based; conditions: biomarker assay, phosphorylated eIF2α Ser51 in borrelidin-treated U2OS cells
intracellular GCN2 (phosphorylation of the GCN2 substrate eIF2α), sequence (Q9P2K8 whole entry): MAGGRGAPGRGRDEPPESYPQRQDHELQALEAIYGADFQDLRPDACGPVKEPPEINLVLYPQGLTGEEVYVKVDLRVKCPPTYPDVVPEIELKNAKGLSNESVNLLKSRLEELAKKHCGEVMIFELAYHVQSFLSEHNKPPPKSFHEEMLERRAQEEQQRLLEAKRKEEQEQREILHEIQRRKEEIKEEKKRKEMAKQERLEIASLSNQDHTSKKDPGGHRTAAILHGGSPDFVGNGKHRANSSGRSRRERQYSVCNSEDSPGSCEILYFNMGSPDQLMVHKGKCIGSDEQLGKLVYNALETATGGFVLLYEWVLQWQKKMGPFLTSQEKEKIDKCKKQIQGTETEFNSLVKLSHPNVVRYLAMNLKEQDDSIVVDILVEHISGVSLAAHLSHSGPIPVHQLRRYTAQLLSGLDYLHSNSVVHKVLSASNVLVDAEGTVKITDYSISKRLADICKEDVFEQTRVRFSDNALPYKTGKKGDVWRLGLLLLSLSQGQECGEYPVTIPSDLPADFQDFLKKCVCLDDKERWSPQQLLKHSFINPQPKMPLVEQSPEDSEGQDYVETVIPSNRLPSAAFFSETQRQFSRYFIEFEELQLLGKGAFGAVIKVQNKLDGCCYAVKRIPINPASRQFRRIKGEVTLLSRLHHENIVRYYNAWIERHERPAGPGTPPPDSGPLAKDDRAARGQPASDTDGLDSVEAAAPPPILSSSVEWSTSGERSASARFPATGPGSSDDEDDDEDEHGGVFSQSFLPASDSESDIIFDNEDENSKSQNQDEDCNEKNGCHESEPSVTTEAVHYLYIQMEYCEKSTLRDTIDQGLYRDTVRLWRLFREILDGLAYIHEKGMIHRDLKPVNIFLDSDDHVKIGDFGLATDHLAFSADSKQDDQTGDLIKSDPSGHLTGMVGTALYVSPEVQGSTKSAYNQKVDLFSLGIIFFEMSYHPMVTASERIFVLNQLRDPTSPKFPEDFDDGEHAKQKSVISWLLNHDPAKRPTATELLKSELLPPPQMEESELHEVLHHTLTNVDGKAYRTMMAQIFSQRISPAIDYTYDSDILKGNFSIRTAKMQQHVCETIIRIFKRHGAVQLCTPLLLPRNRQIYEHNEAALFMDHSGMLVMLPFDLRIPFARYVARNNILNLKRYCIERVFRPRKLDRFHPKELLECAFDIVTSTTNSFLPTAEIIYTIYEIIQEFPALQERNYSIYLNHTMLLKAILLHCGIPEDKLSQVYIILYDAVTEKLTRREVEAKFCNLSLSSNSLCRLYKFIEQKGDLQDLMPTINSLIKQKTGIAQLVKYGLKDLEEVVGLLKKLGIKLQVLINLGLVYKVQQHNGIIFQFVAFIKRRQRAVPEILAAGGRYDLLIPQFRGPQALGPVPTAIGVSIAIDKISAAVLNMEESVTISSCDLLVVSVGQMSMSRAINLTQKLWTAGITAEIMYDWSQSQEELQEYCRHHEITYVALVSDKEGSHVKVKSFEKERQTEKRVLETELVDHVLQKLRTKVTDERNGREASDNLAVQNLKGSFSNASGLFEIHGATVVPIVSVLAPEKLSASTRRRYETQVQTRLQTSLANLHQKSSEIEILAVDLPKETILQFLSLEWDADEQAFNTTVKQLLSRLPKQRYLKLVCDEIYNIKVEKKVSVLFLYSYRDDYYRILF
Outline: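 U2OS cells, adhered overnight, received compounds in 4-fold serial dilutions from 40 μM final, then 10 μM borrelidin for 1 h at 37 °C. Lysates were read by AlphaScreen for phospho-eIF2α Ser51; percent inhibition was set against borrelidin-only wells.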

[3] = compounds of Formula II, 4 nM GCN2 kinase
[4] = compounds of Formula IV, 4 nM GCN2 kinase
[5] = Enzyme activity for compounds of Formula IV, Ki(app), 25° C.

GCN2 kinase, sequence (Q9P2K8 whole entry): as above

Row | Compound | EC50 [1] [nM] | IC50 ([2]; compounds of Formula IV) [nM] | also measured
1 | C[C@H]1[C@@H](CNS(C)(=O)=O)CCCN1c1cc(-c2cnc3ccc(C(F)F)nn23)ncn1 (stereo in doubt) [II-755, N-(((2S,3R)-1-(6-(6-(difluoromethyl)imidazo[1,2-b]pyridazin-3-yl)pyrimidin-4-yl)-2-methylpiperidin-3-yl)methyl)methanesulfonamide] | 100 to 500 |  | IC50 (GCN2 kinase; [3]): > 1000 nM
2 | C[C@H](NS(C)(=O)=O)[C@@H]1CN(c2cc(-c3cnc4ccc(C(F)F)nn34)ncn2)CCO1 [II-772] | 100 to 500 |  | IC50 (GCN2 kinase; [3]): 10 to 1000 nM
3 | Cc1[nH]ncc1[C@H]1CN(c2cc(-c3cnc4ccc(C(F)(F)F)nn34)ncn2)C[C@@H](C)O1 [II-768, (2R,6S)-2-methyl-6-(5-methyl-1H-pyrazol-4-yl)-4-(6-(6-(trifluoromethyl)imidazo[1,2-b]pyridazin-3-yl)pyrimidin-4-yl)morpholine] | > 500 |  | IC50 (GCN2 kinase; [3]): < 10 nM; IC50 ([2]; compounds of Formula II): < 500 nM
4 | CS(=O)(=O)NC[C@@H]1CN(c2cc(-c3cnc4ccc(C(F)F)nn34)ncn2)C[C@H](C(F)(F)F)O1 [II-771, N-(((2S,6R)-4-(6-(6-(difluoromethyl)imidazo[1,2-b]pyridazin-3-yl)pyrimidin-4-yl)-6-(trifluoromethyl)morpholin-2-yl)methyl)methanesulfonamide] | 100 to 500 |  | IC50 (GCN2 kinase; [3]): 10 to 1000 nM
5 | CS(=O)(=O)NCC1CCCN(c2cc(-c3cnc4ccc(C(F)F)nn34)cc(OC3CNC3)n2)C1 (stereo not drawn) [II-779, N-((1-(6-(azetidin-3-yloxy)-4-(6-(difluoromethyl)imidazo[1,2-b]pyridazin-3-yl)pyridin-2-yl)piperidin-3-yl)methyl)methanesulfonamide] | > 500 |  | 
6 | C[C@H]1C[C@@H](NS(C)(=O)=O)CN(c2cc(-c3cnc4ccc(C(F)F)nn34)ncn2)C1 (stereo in doubt) [II-777, N-((3R,5S)-1-(6-(6-(difluoromethyl)imidazo[1,2-b]pyridazin-3-yl)pyrimidin-4-yl)-5-methylpiperidin-3-yl)methanesulfonamide] | 100 to 500 |  | 
7 | CS(=O)(=O)NC[C@H]1C[C@@H](C2CC2)CN(c2cc(-c3cnc4ccc(C(F)F)nn34)ncn2)C1 [II-774, N-(((3S,5S)-5-cyclopropyl-1-(6-(6-(difluoromethyl)imidazo[12-b]pyridazin-3-yl)pyrimidin-4-yl)piperidin-3-yl)methyl)methanesulfonamide] | < 100 |  | 
8 | C[C@H]1CC(F)(F)C(CNS(C)(=O)=O)CN1c1cc(-c2cnc3ccc(C(F)F)nn23)ncn1 (stereo in doubt) [II-778, N-(((3R,6S)-1-(6-(6-(difluoromethyl)imidazo[1,2-b]pyridazin-3-yl)pyrimidin-4-yl)-4,4-difluoro-6-methylpiperidin-3-yl)methyl)methanesulfonamide] | > 500 |  | 
9 | CC1(C)CN(c2cc(-c3cnc4ccc(C(F)F)nn34)ncn2)C[C@@H](CNS(C)(=O)=O)O1 [II-776, (S)—N-((4-(6-(6-(difluoromethyl)imidazo[1,2-b]pyridazin-3-yl)pyrimidin-4-yl)-6,6-dimethylmorpholin-2-yl)methyl)methanesulfonamide] | 100 to 500 |  | 
10 | CS(=O)(=O)NCC1CN(c2cc(-c3cnc4ccc(C(F)F)nn34)ncn2)CC2(CC2)C1(F)F (stereo not drawn) [II-775, N-((5-(6-(6-(difluoromethyl)imidazo[1,2-b]pyridazin-3-yl)pyrimidin-4-yl)-8,8-difluoro-5-azaspiro[2.5]octan-7-yl)methyl)methanesulfonamide] | 100 to 500 |  | 
11 | CS(=O)(=O)NCC1CCCN(c2cc(-c3cnc4ccc(C(F)F)nn34)cnc2C#N)C1 (stereo not drawn) [II-117, N-((1-(2-Cyano-5-(6-(difluoromethyl)imidazo[1,2-b]pyridazin-3-yl)pyridin-3-yl)piperidin-3-yl)methyl)methanesulfonamide] |  |  | Ki (GCN2 kinase; [3]): 10 to 1000 nM; IC50 ([2]; compounds of Formula II): 500 to 5000 nM
12 | C[C@H]1CN(c2cc(-c3cnc4ccc(C(F)F)nn34)ncn2)C[C@@H](CNS(C)(=O)=O)C1(F)F [II-773, N-(((3S,5S)-1-(6-(6-(difluoromethyl)imidazo[1,2-b]pyridazin-3-yl)pyrimidin-4-yl)-4,4-difluoro-5-methylpiperidin-3-yl)methyl)methanesulfonamide] | < 100 |  | 
13 | COc1cc(-c2cnc3ccc(C(F)F)nn23)cc(N2CCCC(CNS(C)(=O)=O)C2)n1 (stereo not drawn) [II-142, N-((1-(4-(6-(Difluoromethyl)imidazo[1,2-b]pyridazin-3-yl)-6-methoxypyridin-2-yl)piperidin-3-yl)methyl)methanesulfonamide] |  |  | Ki (GCN2 kinase; [3]): < 10 nM; IC50 ([2]; compounds of Formula II): 500 to 5000 nM
14 | OCC12CC1CN(c1cc(-c3cnc4ccc(C(F)F)nn34)ncn1)C2 (stereo not drawn) [II-438, (3-(6-(6-(Difluoromethyl)imidazo[1,2-b]pyridazin-3-yl)pyrimidin-4-yl)-3-azabicyclo[3.1.0]hexan-1-yl)methanol] |  |  | Ki (GCN2 kinase; [3]): 10 to 1000 nM; IC50 ([2]; compounds of Formula II): 500 to 5000 nM

The next lines start with results.

Row | EC50 [1] [nM] | IC50 ([2]; compounds of Formula IV) [nM] | Compound | also measured
15 | 100 to 500 | < 500 | C[C@H]1C[C@@H](c2c[nH]nc2F)CN(c2ccnc(-c3cnc4cnc(C(F)(F)F)cn34)n2)C1 [IV-767] | IC50 (GCN2 kinase; [4]): < 10 nM
16 | 100 to 500 | < 500 | Cc1n[nH]cc1[C@@H]1CN(c2ccnc(-c3cnc4cnc(C(F)(F)F)cn34)n2)C[C@H](C)O1 (stereo in doubt) [IV-763, (2S,6R)-2-methyl-6-(3-methyl-1H-pyrazol-4-yl)-4-(2-(6-(trifluoromethyl)imidazo[1,2-a]pyrazin-3-yl)pyrimidin-4-yl)morpholine] | IC50 (GCN2 kinase; [4]): < 10 nM
17 |  | > 5000 | Cc1n[nH]cc1[C@@H]1C[C@@H](O)CN(c2ccnc(-c3cnc4cnc(C(F)(F)F)cn34)n2)C1 [IV-775, (3R,5S)-5-(3-methyl-1H-pyrazol-4-yl)-1-(2-(6-(trifluoromethyl)imidazo[1,2-a]pyrazin-3-yl)pyrimidin-4-yl)piperidin-3-ol] | IC50 (GCN2 kinase; [4]): 10 to 1000 nM
18 |  | > 5000 | CN([C@H]1CCN(c2ccnc(-c3cnc4cnc(C(F)F)cn34)n2)C1)S(C)(=O)=O [IV-125, (S)—N-(1-(2-(6-(Difluoromethyl)imidazo[1,2-a]pyrazin-3-yl)pyrimidin-4-yl)pyrrolidin-3-yl)-N-methylmethanesulfonamide] | Ki (GCN2 kinase; [5]): 100 to 1000 nM
19 |  | 500 to 5000 | Cc1cn2c(-c3nccc(N4CCOC(c5cn[nH]c5)C4)n3)cnc2cn1 (stereo not drawn) [IV-20, 4-(2-(6-Methylimidazo[1,2-a]pyrazin-3-yl)pyrimidin-4-yl)-2-(1H-pyrazol-4-yl)morpholine] | Ki (GCN2 kinase; [5]): 10 to 100 nM
20 |  | 500 to 5000 | CC1CN(c2ccnc(-c3cnc4cnc(C(F)(F)F)cn34)n2)CC(c2cn[nH]c2)N1 (stereo not drawn) [IV-189, 3-(4-(3-Methyl-5-(1H-pyrazol-4-yl)piperazin-1-yl)pyrimidin-2-yl)-6-(trifluoromethyl)imidazo[1,2-a]pyrazine] | Ki (GCN2 kinase; [5]): 10 to 100 nM
21 |  | > 5000 | CP(C)(=O)C1CC(c2cn[nH]c2)CN(c2ccnc(-c3cnc4cnc(C(F)(F)F)cn34)n2)C1 (single isomer, unassigned) [IV-592, (5-(1H-Pyrazol-4-yl)-1-(2-(6-(trifluoromethyl)imidazo[1,2-a]pyrazin-3-yl)pyrimidin-4-yl)piperidin-3-yl)dimethylphosphine oxide] | Ki (GCN2 kinase; [5]): < 10 nM
22 |  | 500 to 5000 | CC1CN(c2ccnc(-c3cnc4cnc(Cl)cn34)n2)CC(c2cn[nH]c2)O1 (single isomer, unassigned) [IV-192, 4-(2-(6-Chloroimidazo[1,2-a]pyrazin-3-yl)pyrimidin-4-yl)-2-methyl-6-(1H-pyrazol-4-yl)morpholine] | Ki (GCN2 kinase; [5]): < 10 nM
23 |  | 500 to 5000 | CC1CN(c2ccnc(-c3cnc4cnc(Br)cn34)n2)CC(c2cn[nH]c2)N1 (single isomer, unassigned) [IV-365, 6-Bromo-3-(4-(3-methyl-5-(1H-pyrazol-4-yl)piperazin-1-yl)pyrimidin-2-yl)imidazo[1,2-a]pyrazine] | Ki (GCN2 kinase; [5]): < 10 nM
